Laboratory results reported in ChEMBL document CHEMBL2311538, “Discovery of a class of novel tankyrase inhibitors that bind to both the nicotinamide pocket and the induced pocket” (J Med Chem, 2013).

What was measured:
[1] = target: T1, Poly [ADP-ribose] polymerase tankyrase-1 (Homo sapiens, UniProt O95271)
T1 sequence (O95271 whole entry): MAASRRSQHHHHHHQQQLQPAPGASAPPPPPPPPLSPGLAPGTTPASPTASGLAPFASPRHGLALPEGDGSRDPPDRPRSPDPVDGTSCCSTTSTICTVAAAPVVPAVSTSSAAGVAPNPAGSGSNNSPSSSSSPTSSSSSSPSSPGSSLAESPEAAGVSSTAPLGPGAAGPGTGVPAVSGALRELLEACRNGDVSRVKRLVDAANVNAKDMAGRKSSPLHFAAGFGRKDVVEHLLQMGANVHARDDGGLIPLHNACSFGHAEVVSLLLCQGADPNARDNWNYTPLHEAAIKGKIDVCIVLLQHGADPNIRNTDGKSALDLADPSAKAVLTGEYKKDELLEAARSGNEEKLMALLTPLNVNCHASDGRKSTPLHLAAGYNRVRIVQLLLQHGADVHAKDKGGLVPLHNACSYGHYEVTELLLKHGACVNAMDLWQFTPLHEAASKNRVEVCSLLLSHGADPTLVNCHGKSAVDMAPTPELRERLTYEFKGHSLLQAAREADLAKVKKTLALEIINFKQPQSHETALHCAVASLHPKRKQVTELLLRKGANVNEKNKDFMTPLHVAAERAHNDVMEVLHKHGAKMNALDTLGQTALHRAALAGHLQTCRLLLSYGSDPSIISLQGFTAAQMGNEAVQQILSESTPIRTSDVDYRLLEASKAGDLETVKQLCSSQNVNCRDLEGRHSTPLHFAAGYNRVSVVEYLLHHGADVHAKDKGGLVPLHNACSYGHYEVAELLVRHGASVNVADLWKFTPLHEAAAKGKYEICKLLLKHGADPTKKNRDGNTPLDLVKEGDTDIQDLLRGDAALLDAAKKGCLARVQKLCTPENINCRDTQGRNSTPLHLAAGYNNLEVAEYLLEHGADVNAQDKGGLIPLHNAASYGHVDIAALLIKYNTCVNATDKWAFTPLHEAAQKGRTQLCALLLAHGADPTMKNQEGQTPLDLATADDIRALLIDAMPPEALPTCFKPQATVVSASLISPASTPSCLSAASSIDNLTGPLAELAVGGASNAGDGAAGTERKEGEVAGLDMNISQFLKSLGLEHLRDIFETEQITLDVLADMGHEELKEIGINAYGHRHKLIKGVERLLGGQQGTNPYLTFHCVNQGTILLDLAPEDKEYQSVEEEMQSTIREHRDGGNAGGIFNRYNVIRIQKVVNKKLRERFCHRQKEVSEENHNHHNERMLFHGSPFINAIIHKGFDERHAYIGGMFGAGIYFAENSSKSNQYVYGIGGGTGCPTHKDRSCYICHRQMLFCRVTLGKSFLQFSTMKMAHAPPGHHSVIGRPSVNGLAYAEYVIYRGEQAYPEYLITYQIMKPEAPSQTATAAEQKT

[2] = target: Poly [ADP-ribose] polymerase 2 (Homo sapiens, UniProt Q9UGN5); assay: Inhibition of PARP2 (unknown origin)
[3] = target: T2, Poly [ADP-ribose] polymerase tankyrase-2 (Homo sapiens, UniProt Q9H2K2); assay: Inhibition of N-terminal His6-tagged human TNKS2 (946 to 1162 amino acid residues) after 60 mins by autoparsylation assay
T2 sequence (Q9H2K2 whole entry): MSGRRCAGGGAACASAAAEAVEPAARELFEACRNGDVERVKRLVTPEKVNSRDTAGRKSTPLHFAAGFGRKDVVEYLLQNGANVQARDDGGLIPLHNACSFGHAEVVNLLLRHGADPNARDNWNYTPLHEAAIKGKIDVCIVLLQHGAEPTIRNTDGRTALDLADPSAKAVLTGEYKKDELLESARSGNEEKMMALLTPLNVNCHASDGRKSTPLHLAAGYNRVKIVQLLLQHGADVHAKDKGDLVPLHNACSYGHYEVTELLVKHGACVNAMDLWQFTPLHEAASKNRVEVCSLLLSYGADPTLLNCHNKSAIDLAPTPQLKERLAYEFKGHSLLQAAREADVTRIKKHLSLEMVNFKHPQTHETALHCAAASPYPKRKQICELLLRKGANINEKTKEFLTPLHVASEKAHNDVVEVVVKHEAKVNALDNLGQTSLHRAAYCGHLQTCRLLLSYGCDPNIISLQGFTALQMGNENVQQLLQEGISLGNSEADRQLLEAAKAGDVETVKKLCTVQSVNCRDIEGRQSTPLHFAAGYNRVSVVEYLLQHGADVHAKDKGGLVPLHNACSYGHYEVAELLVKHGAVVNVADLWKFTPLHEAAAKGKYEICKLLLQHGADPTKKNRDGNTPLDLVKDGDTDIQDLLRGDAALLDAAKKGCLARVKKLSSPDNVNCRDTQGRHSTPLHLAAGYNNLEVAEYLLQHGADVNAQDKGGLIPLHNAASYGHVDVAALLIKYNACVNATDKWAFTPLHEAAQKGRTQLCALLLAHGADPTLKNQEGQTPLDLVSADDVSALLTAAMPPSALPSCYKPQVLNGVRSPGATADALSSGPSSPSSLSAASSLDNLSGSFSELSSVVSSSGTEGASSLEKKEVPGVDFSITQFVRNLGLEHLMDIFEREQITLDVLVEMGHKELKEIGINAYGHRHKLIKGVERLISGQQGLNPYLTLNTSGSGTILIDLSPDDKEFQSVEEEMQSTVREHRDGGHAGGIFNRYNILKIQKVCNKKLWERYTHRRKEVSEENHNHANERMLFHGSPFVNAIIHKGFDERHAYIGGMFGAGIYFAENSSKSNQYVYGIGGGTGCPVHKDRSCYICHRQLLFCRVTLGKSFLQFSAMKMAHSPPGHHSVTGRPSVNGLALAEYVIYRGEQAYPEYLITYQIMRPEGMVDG

Tankyrase 1/2 = target: T3, Tankyrase 1/2 (Homo sapiens, UniProt Q9H2K2+O95271); settings: hek293
T3 sequence (Q9H2K2 whole entry): T2 sequence (Q9H2K2 whole entry)
T3 sequence (O95271 whole entry): T1 sequence (O95271 whole entry)

Chain of Poly [ADP-ribose] polymerase 2 (Q9UGN5 whole entry, the tested form may be a part): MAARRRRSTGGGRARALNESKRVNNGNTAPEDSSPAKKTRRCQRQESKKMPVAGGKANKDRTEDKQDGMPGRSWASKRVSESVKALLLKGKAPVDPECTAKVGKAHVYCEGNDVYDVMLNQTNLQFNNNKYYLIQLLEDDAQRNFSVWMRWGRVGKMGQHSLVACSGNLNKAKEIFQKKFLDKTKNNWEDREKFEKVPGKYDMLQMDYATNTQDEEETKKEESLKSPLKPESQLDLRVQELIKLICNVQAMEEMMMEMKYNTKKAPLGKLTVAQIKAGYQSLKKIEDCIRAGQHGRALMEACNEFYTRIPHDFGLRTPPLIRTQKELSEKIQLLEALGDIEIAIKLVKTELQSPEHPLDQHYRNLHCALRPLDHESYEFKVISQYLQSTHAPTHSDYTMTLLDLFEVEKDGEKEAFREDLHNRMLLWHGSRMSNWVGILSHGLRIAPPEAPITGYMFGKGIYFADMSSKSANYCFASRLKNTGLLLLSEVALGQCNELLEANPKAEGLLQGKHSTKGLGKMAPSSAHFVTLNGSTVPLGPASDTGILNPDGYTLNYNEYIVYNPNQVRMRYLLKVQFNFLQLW

Row | IC50 [1] [µM] | IC50 [2] [µM] | IC50 [3] [µM] | IC50 (Tankyrase 1/2) [µM] | SMILES
1 | 0.008 | 0.931 | – | – | COc1ccccc1NC(=O)c1ccc(NC(=O)CCc2nc3ccccc3c(=O)[nH]2)cc1
2 | 0.192 | – | 0.036 | 163 | Cc1ccnc2c(NC(=O)c3ccc(N4C(=O)[C@@H]5[C@H](C4=O)[C@@H]4C=C[C@H]5C4)cc3)cccc12
